Columns and labels:
Experiment in all cases: KINOMEscan
Assay type in all cases: binding
Settings in all cases: 2000 nM
YANK2 = molecular target: T1, YANK2 (Homo sapiens, UniProt Q9NY57)
T1 construct: purchased KINOMEscan (DiscoveRx) panel service

ABL2 = molecular target: T2, ABL2 (Homo sapiens, UniProt P42684)
T2 construct: purchased DiscoveRx (KINOMEscan scanMAX panel, service)

TRKB = molecular target: T3, TRKB (Homo sapiens, UniProt Q16620)
T3 construct: DNA label (qPCR read-out); purchased KINOMEscan (DiscoveRx) ScanMAX panel

PCTK2 = molecular target: T4, PCTK2 (Homo sapiens, UniProt Q00537)
T4 construct: purchased DiscoverX (KINOMEscan service)

PIK3CA(E545A) = molecular target: T5, PIK3CA(E545A) (Homo sapiens, UniProt P42336, E545A)
T5 construct: DNA label; purchased DiscoveRx (KINOMEscan scanMAX panel)

MAP3K2 = MAP3K2 (Homo sapiens, UniProt Q9Y2U5)
TSSK3 = molecular target: T6, TSSK3 (Homo sapiens, UniProt Q96PN8)
T6 construct: DNA label (for qPCR read-out); purchased DiscoveRx (KINOMEscan scanMAX panel)
T6 sequence (Q96PN8 whole entry): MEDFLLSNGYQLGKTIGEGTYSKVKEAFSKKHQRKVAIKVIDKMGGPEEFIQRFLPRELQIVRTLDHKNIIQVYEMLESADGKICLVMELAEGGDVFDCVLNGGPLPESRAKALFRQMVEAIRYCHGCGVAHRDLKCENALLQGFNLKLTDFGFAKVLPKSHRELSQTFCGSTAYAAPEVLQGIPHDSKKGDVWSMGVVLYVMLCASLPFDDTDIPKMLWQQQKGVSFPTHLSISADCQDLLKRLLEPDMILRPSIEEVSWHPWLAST

CDKL5 = molecular target: T7, CDKL5 (Homo sapiens, UniProt O76039)
T7 construct: DNA label (for qPCR read-out); purchased DiscoveRx (KINOMEscan scanMAX service)

IRAK4 = molecular target: T8, IRAK4 (Homo sapiens, UniProt Q9NWZ3)
T8 construct: DNA label (qPCR read-out); purchased KINOMEscan (DiscoveRx) ScanMAX panel

MARK4 = molecular target: T9, MARK4 (Homo sapiens, UniProt Q96L34)
T9 construct: purchased DiscoveRx (KINOMEscan scanMAX panel, service)
T9 sequence (Q96L34 whole entry): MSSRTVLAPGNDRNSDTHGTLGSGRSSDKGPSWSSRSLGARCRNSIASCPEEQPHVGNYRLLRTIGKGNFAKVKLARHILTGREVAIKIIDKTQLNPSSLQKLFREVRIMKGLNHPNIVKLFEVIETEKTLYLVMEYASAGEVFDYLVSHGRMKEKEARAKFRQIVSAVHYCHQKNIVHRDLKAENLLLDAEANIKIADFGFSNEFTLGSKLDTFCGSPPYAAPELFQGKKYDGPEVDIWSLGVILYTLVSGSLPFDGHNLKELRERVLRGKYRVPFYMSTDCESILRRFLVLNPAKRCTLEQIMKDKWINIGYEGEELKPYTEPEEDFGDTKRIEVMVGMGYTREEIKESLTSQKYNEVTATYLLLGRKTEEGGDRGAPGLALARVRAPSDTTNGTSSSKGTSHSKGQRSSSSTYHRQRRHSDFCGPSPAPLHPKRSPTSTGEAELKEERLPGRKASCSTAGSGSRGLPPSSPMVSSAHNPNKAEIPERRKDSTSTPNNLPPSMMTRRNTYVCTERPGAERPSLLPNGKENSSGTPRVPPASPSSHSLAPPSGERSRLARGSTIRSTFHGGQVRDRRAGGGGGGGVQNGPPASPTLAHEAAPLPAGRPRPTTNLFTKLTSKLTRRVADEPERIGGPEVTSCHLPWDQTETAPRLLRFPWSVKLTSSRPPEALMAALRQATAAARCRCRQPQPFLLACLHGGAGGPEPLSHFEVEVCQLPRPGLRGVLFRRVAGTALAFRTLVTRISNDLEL

NEK6 = molecular target: T10, NEK6 (Homo sapiens, UniProt Q9HC98)
T10 construct: DNA label (qPCR read-out); purchased KINOMEscan (ScanMAX panel service)
T10 sequence (Q9HC98 whole entry): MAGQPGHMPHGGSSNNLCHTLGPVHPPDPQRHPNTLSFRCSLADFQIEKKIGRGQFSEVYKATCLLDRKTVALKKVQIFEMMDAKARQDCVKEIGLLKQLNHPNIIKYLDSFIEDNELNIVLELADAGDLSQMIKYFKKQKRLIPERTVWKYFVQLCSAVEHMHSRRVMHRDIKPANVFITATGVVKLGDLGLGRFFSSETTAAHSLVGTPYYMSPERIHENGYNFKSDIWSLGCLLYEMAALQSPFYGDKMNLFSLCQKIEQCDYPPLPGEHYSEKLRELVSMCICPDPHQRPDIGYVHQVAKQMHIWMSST

PRKCD = molecular target: T11, PRKCD (Homo sapiens, UniProt Q05655)
T11 construct: purchased DiscoveRx (KINOMEscan scanMAX panel)

FLT3(D835H) = molecular target: T12, FLT3(D835H) (Homo sapiens, UniProt P36888, D835H)
T12 construct: purchased DiscoveRx (KINOMEscan scanMAX panel)

BMX = molecular target: T13, BMX (Homo sapiens, UniProt P51813)
T13 construct: DNA label (for qPCR read-out); purchased KINOMEscan scanMAX panel (DiscoveRx)

GAK = molecular target: T14, GAK (Homo sapiens, UniProt O14976)
T14 construct: purchased KINOMEscan (DiscoveRx)

S6K1 = molecular target: T15, S6K1 (Homo sapiens, UniProt P23443)
T15 construct: purchased DiscoveRx (KINOMEscan scanMAX panel)

ACVR1B = molecular target: T16, ACVR1B (Homo sapiens, UniProt P36896)
T16 construct: purchased DiscoveRx (KINOMEscan scanMAX panel, service)

CLK4 = molecular target: T17, CLK4 (Homo sapiens, UniProt Q9HAZ1)
T17 construct: DNA label (for qPCR read-out); purchased DiscoveRx (KINOMEscan scanMAX service)

NEK5 = molecular target: T18, NEK5 (Homo sapiens, UniProt Q6P3R8)
T18 construct: DNA label (qPCR read-out); purchased KINOMEscan (ScanMAX panel service)
T18 sequence (Q6P3R8 whole entry): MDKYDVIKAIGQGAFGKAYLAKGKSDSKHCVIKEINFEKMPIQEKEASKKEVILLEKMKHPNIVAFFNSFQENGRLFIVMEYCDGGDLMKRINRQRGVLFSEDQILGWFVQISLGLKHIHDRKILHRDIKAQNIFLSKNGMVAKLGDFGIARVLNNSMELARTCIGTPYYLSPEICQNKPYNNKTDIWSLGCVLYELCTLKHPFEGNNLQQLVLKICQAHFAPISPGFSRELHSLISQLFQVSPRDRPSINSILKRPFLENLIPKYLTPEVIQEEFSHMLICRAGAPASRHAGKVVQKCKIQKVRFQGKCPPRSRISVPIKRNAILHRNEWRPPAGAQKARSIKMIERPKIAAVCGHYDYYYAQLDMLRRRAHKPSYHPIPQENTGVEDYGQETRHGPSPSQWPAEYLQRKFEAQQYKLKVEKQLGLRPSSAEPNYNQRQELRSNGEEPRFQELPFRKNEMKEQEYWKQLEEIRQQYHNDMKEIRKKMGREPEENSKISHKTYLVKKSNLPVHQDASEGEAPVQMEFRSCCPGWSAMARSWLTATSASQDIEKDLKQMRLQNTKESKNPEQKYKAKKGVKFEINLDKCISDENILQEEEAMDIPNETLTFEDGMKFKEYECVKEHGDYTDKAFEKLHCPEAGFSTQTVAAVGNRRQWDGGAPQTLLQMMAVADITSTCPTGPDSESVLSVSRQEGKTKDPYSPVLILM

ULK1 = molecular target: T19, ULK1 (Homo sapiens, UniProt O75385)
T19 construct: DNA label (for qPCR read-out); purchased DiscoveRx (KINOMEscan scanMAX panel)

PKNB(M.tuberculosis) = molecular target: T20, PKNB(M.tuberculosis) (Mycobacterium tuberculosis, UniProt P9WI81)
T20 construct: purchased DiscoveRx (KINOMEscan scanMAX panel)

[1] = molecular target: ABL1(Q252H)-phosphorylated (Homo sapiens, UniProt P00519, Q252H)
TXK = molecular target: T21, TXK (Homo sapiens, UniProt P42681)
T21 construct: DNA label (for qPCR read-out); purchased DiscoveRx (KINOMEscan scanMAX panel)
T21 sequence (P42681 whole entry): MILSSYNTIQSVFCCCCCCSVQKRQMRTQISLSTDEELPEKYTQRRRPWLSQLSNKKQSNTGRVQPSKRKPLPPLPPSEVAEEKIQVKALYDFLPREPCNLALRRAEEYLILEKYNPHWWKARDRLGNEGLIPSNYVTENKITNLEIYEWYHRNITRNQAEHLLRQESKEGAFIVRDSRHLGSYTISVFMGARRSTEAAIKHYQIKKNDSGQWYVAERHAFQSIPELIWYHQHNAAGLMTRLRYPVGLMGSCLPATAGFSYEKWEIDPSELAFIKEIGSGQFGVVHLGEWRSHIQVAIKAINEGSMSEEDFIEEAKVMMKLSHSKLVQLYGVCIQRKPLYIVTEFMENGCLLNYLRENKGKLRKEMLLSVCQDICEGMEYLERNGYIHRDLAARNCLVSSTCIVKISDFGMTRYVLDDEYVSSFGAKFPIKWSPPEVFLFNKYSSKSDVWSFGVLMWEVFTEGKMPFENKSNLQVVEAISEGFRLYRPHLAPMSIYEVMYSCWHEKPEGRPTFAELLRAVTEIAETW

WEE2 = molecular target: T22, WEE2 (Homo sapiens, UniProt P0C1S8)
T22 construct: purchased KINOMEscan (DiscoveRx) panel service

MET = molecular target: T23, MET (Homo sapiens, UniProt P08581)
T23 construct: purchased DiscoveRx (KINOMEscan scanMAX panel, service)

TNK2 = molecular target: T24, TNK2 (Homo sapiens, UniProt Q07912)
T24 construct: DNA label (qPCR read-out); purchased KINOMEscan (DiscoveRx) ScanMAX panel

FGFR1 = molecular target: T25, FGFR1 (Homo sapiens, UniProt P11362)
T25 construct: purchased DiscoveRx (KINOMEscan scanMAX panel)

PRKCI = molecular target: T26, PRKCI (Homo sapiens, UniProt P41743)
T26 construct: purchased DiscoveRx (KINOMEscan scanMAX panel)

PIM3 = molecular target: T27, PIM3 (Homo sapiens, UniProt Q86V86)
T27 construct: DNA label (qPCR read-out); purchased KINOMEscan (DiscoveRx) panel

EPHB1 = molecular target: T28, EPHB1 (Homo sapiens, UniProt P54762)
T28 construct: purchased DiscoveRx (KINOMEscan scanMAX panel)

BMPR1B = molecular target: T29, BMPR1B (Homo sapiens, UniProt O00238)
T29 construct: DNA label (for qPCR read-out); purchased KINOMEscan scanMAX panel (DiscoveRx)

YANK1 = molecular target: T30, YANK1 (Homo sapiens, UniProt Q8WU08)
T30 construct: purchased KINOMEscan (DiscoveRx) panel service

MAST1 = molecular target: T31, MAST1 (Homo sapiens, UniProt Q9Y2H9)
T31 construct: purchased DiscoveRx (KINOMEscan scanMAX panel, service)

AAK1 = molecular target: T32, AAK1 (Homo sapiens, UniProt Q2M2I8)
T32 construct: DNA label (qPCR read-out); purchased DiscoverX (KINOMEscan service)
T32 sequence (Q2M2I8 whole entry): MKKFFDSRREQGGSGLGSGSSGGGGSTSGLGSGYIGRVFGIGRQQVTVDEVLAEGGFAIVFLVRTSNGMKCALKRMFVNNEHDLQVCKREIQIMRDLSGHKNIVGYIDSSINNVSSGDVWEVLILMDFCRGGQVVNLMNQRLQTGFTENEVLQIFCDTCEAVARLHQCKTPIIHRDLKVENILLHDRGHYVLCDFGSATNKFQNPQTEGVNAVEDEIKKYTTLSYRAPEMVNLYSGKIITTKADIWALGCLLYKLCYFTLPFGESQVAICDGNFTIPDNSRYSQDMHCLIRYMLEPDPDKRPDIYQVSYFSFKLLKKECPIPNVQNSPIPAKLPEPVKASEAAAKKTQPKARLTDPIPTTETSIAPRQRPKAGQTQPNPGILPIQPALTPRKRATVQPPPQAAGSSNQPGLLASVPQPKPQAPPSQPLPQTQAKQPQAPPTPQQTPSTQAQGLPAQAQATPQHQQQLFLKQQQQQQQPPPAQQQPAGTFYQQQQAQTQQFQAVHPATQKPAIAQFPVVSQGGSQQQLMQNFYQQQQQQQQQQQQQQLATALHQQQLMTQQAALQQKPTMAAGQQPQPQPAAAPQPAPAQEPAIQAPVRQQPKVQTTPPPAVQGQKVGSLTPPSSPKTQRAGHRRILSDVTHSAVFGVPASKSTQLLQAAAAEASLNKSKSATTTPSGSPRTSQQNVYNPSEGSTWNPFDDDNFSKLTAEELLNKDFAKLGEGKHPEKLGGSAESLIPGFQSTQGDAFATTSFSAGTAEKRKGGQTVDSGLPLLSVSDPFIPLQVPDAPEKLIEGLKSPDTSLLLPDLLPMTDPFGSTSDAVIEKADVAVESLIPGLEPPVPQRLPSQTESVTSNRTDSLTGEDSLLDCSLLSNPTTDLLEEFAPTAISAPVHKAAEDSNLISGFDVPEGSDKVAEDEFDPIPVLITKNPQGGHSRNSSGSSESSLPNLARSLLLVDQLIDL

TTK = molecular target: T33, TTK (Homo sapiens, UniProt P33981)
T33 construct: DNA label (for qPCR read-out); purchased DiscoveRx (KINOMEscan scanMAX panel)

YES = molecular target: T34, YES (Homo sapiens, UniProt P07947)
T34 construct: purchased KINOMEscan (DiscoveRx) panel service

RIOK1 = molecular target: T35, RIOK1 (Homo sapiens, UniProt Q9BRS2)
T35 construct: DNA label (qPCR read-out); purchased DiscoveRx (KINOMEscan ScanMAX panel)

T2 sequence (P42684 whole entry): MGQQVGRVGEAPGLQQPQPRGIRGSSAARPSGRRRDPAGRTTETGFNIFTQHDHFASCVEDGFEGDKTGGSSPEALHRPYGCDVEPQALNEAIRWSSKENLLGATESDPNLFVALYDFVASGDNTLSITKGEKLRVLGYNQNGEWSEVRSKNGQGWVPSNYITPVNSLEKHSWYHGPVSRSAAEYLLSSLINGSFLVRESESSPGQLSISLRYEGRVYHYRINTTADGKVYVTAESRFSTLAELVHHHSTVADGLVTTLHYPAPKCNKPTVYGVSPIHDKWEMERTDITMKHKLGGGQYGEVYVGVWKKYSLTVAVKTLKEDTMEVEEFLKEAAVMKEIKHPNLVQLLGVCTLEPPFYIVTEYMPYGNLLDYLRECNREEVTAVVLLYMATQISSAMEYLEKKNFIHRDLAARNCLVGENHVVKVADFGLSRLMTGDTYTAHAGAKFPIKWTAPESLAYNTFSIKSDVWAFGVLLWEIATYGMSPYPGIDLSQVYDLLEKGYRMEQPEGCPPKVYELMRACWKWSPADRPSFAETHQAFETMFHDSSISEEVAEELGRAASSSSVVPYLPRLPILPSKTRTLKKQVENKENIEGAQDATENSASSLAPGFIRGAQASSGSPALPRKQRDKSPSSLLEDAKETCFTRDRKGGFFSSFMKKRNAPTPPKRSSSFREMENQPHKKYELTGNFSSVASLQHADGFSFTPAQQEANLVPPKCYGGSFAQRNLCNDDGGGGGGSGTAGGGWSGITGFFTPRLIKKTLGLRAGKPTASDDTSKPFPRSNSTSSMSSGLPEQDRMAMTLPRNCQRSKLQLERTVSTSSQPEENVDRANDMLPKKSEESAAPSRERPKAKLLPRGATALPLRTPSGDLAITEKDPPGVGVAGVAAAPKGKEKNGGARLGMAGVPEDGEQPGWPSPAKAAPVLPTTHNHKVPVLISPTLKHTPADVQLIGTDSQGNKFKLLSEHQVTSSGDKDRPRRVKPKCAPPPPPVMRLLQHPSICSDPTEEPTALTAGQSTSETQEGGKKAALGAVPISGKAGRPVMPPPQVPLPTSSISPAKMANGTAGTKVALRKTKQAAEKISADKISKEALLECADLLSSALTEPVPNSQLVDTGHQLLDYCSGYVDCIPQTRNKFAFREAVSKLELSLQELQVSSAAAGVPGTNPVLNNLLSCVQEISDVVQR

| SMILES | % Ctrl (YANK2) [% Ctrl] | % Ctrl (ABL2) [% Ctrl] | % Ctrl (TRKB) [% Ctrl] | % Ctrl (PCTK2) [% Ctrl] | % Ctrl (PIK3CA(E545A)) [% Ctrl] | % Ctrl (MAP3K2) [% Ctrl] | % Ctrl (TSSK3) [% Ctrl] | % Ctrl (CDKL5) [% Ctrl] | % Ctrl (IRAK4) [% Ctrl] | % Ctrl (MARK4) [% Ctrl] | % Ctrl (NEK6) [% Ctrl] | % Ctrl (PRKCD) [% Ctrl] | % Ctrl (FLT3(D835H)) [% Ctrl] | % Ctrl (BMX) [% Ctrl] | % Ctrl (GAK) [% Ctrl] | % Ctrl (S6K1) [% Ctrl] | % Ctrl (ACVR1B) [% Ctrl] | % Ctrl (CLK4) [% Ctrl] | % Ctrl (NEK5) [% Ctrl] | % Ctrl (ULK1) [% Ctrl] | further results |
| --- | --- | --- | --- | --- | --- | --- | --- | --- | --- | --- | --- | --- | --- | --- | --- | --- | --- | --- | --- | --- | --- |
| CN(C)C(=O)c1ccc(N2CCCN(c3ccnc4sc(C(N)=O)c(N)c34)CC2)cc1 [15u, 3-amino-4-(4-(4-(dimethylcarbamoyl)phenyl)-1,4-diazepan-1-yl)thieno[2,3-b]pyridine-2-carboxamide] | 89 | 85 | 88 | 62 | 100 | 98 | 93 | 100 | 89 | 100 | 92 | 100 | 63 | 93 | 88 | 95 | 100 | 59 | 94 | 96 | % Ctrl (PKNB(M.tuberculosis)): 100 % Ctrl; % Ctrl [1]: 94 % Ctrl; % Ctrl (TXK): 93 % Ctrl; % Ctrl (WEE2): 97 % Ctrl; % Ctrl (MET): 99 % Ctrl; % Ctrl (TNK2): 100 % Ctrl; % Ctrl (FGFR1): 98 % Ctrl; % Ctrl (PRKCI): 100 % Ctrl; % Ctrl (PIM3): 89 % Ctrl; % Ctrl (EPHB1): 88 % Ctrl; % Ctrl (BMPR1B): 100 % Ctrl; % Ctrl (YANK1): 89 % Ctrl; % Ctrl (MAST1): 92 % Ctrl; % Ctrl (AAK1): 94 % Ctrl; % Ctrl (TTK): 83 % Ctrl; % Ctrl (YES): 99 % Ctrl; % Ctrl (RIOK1): 100 % Ctrl |
| [2H]C([2H])([2H])N(C(=O)c1ccc(N2CCCN(c3ccnc4sc(C(N)=O)c(N)c34)CC2)cc1)C([2H])([2H])[2H] [15u_D6, 3-amino-4-(4-(4-(bis(methyl-d3)carbamoyl)phenyl)-1,4-diazepan-1-yl)thieno[2,3-b]pyridine-2-carboxamide] | 84 | 91 | 78 | 100 | 92 | 86 | 100 | 84 | 78 | 98 | 100 | 92 | 76 | 100 | 94 | 89 | 99 | 66 | 100 | 72 | % Ctrl (PKNB(M.tuberculosis)): 90 % Ctrl; % Ctrl [1]: 75 % Ctrl; % Ctrl (TXK): 100 % Ctrl; % Ctrl (WEE2): 88 % Ctrl; % Ctrl (MET): 92 % Ctrl; % Ctrl (TNK2): 100 % Ctrl; % Ctrl (FGFR1): 92 % Ctrl; % Ctrl (PRKCI): 100 % Ctrl; % Ctrl (PIM3): 98 % Ctrl; % Ctrl (EPHB1): 88 % Ctrl; % Ctrl (BMPR1B): 62 % Ctrl; % Ctrl (YANK1): 97 % Ctrl; % Ctrl (MAST1): 92 % Ctrl; % Ctrl (AAK1): 90 % Ctrl; % Ctrl (TTK): 80 % Ctrl; % Ctrl (YES): 100 % Ctrl; % Ctrl (RIOK1): 100 % Ctrl |
